Reference: patent US6300499A, “α1-adrenergic receptor antagonists” (Societe de Conseils de Recherches et d'Applications …, priority 1998, dated 2001)

What was measured:
prostatic urethrae = experiment: Urethra Contraction Test (inhibition of phenylephrine contraction of prostatic urethra); set-up: species or system rabbit (male New Zealand); details: inhibition of contraction of rabbit prostatic urethra, agonist phenylephrine, compound 30 min before
Method: The urethrae are removed from male New Zealand rabibits, and cleaned of the surrounding connective tissues. Bands of prostatic urethrae (3 mm wide, 10-15 mm long) are suspended (1 g tension) in organ baths containing 10 ml of physiological solution (pH 7.4) at 37° C. under an atmosphere of 95% O2 /5% CO2; NaCl (118 mM); KCl (4.7 mM); CaCl2 (2.5 mM); KH2 PO4 (1.2 mM); MgSO4 (1.2 mM); NaHCO3 (25 mM); glucose (11 mM). The contractile responses are measured using force displacement transducers coupled to a Gould 8000S polygraph. A one hour period of equilibration or equalization is provided before the experiment. After equalization, the preparations are sensitized by a submaximal concentration of phenylephrine. Forty five minutes after the sensitization, a concentration-effect curve for the phenylephrine is established. In order to determine the effect of the test compounds, different preparations originating from the same animal are used in parallel. One preparation serves as a control whilst the others receive a concentration of a test compound introduced into the bath 30 minutes before the phenylephrine (Auguet, M. et al. European J. Pharmacol. 217:153 (1995)).
The dissociation constants (Kb) of the test compounds are determined using the following equation: Kb =[B]/(dose ratio--1); in which [B] is the concentration of test compound and (dose ratio) is the EC50 of phenylephrine in the presence of the test compound divided by the EC50 of the control preparation. These resultats are then expressed as the negative logarithm of Kb. The values of the EC50 are calculated from the maximum contractile response to the phenylephrine by computer analysis using a linear regression over the average tension values. The maximum contractile response of each preparation which was subjected to the test compound is determined by comparing the response provoked by the application of the sensitizing concentration of phenylephrine with the response provoked in the control preparation (which has not received the test compounds).

α1-adrenergic receptor = experiment: Test of the bond to the α1-adrenergic receptor (inhibition of [3H]prazosin bond to rat cerebral cortex); assay type: binding, rat (male Sprague Dawley); details: [3H]prazosin 0.2 nM, rat cerebral cortex membranes, 30 min, 25° C., pH 7.7
Method: The cerebral cortices of male Sprague Dawley rats are homogenized at 4° C. in Tris-HCl 50 mM pH=7.7 and centrifuged at 50,000 g for 30 minutes at 4° C. The pellets are again suspended in the same buffer and centrifuged again at 50,000 g for 30 minutes at 4° C.
The filters are rinsed three times with the same buffer at 0-4° C. and their radioactivity is tested by liquid scintillation spectrometry.
The specific bonds are obtained by subtracting the non-specific bonds (determined in the presence of 10 μM of phentolamine (Sigma Chemical Co. St. Louis Mo.)) from the total bonds. The data relative to the bonds is analyzed by computer assisted iterative non-linear regression analysis, using the Ligand program (Munson, P. J., Rodbard, D. Anal. Biochem. 107:220 (1980)).

Row | SMILES | -log Kb (prostatic urethrae) | Ki (α1-adrenergic receptor)
1 | Cc1ccc(C)c(N2CCN(CCCNC(=O)C(C)(O)c3cccc4ccccc34)CC2)c1 (racemic) [Compound 42, (±)-N-[3-{4-(2,5dimethylphenyl)-1-piperazinyl}-propyl]-α-hydroxy-α-methyl-1-naphthaleneacetamide] | 7.68 | 22 nM
2 | Cc1ccc(S(=O)(=O)NC(C(=O)NCCCN2CCN(c3cc(C)ccc3C)CC2)c2ccccc2)cc1 (racemic) [Compound 48, (±)-N-[3-{4-(2,5-dimethylphenyl)-1piperazinyl}-propyl]-α-(4-methylphenyl)-sulphonylamino-benzeneacetamide] | 7.02 | 29 nM
3 | Cc1ccc(C)c(N2CCN(CCCNC(=O)C(c3ccccc3)c3ccccc3)CC2)c1 [Compound 20, N-[3-{4-(2,5-dimethylphenyl)-1-piperazinyl}-propyl]-α-phenyl-benzeneacetamide] | 7.5 | 27 nM
4 | N#Cc1ccccc1N1CCN(CCCNC(=O)C(O)(c2ccccc2)c2ccccc2)CC1 [Compound 10, N-[3-{4-(2-cyanophenyl)-1-piperazinyl}-propyl]-α-hydroxy-α-phenyl-benzeneacetamide] | 8.2 | 27 nM
5 | Cc1ccc(C)c(N2CCN(CCCNC(=O)C(CO)c3ccccc3)CC2)c1 (racemic) [Compound 39, (±)-N-[3-{4-(2,5-dimethylphenyl)-1-piperazinyl}-propyl]-α-hydroxymethyl-benzeneacetamide] | 7.3 | 27 nM
6 | Cc1ccc(C)c(N2CCN(CCCNC(=O)C(C)(C(=O)NCc3ccccc3)c3ccccc3)CC2)c1 (racemic) [Compound 50, (±)-N-[3-{4-(2,5-dimethylphenyl)-1-piperazinyl}-propyl]-α-benzylaminocarbonyl-α-methyl-benzeneacetamide] | 6.92 | 50 nM
7 | COc1ccc(C(O)(C(=O)NCCCN2CCN(c3cc(C)ccc3C)CC2)c2ccc(OC)cc2)cc1 [Compound 25, N-[3-{4-(2,5-dimethylphenyl)-1-piperazinyl}-propyl]-α-hydroxy-4-methoxy-α-(4-methoxyphenyl)-benzeneacetamide] | 7.6 | 29 nM
8 | COc1ccccc1N1CCN(CCCNC(=O)C2c3ccccc3Oc3ccccc32)CC1 [Compound 15, N-[3-{4-(2-methoxyphenyl)-1-piperazinyl}-propyl]-9H-xanthene-9-carboxamide] | 7.9 | 27 nM
9 | COc1ccccc1N1CCN(CCCNC(=O)C(c2ccccc2)c2ccccc2)CC1 [Compound 13, N-[3-{4-(2-methoxyphenyl)-1-piperazinyl}-propyl]-α-phenyl-benzeneacetamide] | 8.2 | 30 nM
10 | COc1ccccc1N1CCN(CCCNC(=O)C2(O)c3ccccc3-c3ccccc32)CC1 [Compound 16, 9-hydroxy-N-[3-{4-(2-methoxyphenyl)-1-piperazinyl}-propyl]-9H-fluorene-9-carboxamide] | 7.8 | 41 nM
11 | O=C(NCCCN1CCN(c2ccccc2Cl)CC1)C(O)(c1ccccc1)c1ccccc1 [Compound 9, N-[3-{4-(2-chlorophenyl)-1-piperazinyl}-propyl]-α-hydroxy-α-phenyl-benzeneacetamide] | 8.1 | 28 nM
12 | Cc1ccc(C)c(N2CCN(CCCNC(=O)C(C)c3ccccc3)CC2)c1 (racemic) [Compound 38, (±)-N-[3-{4-(2,5-dimethylphenyl)-1-piperazinyl}-propyl]-α-methyl-benzeneacetamide] | 7.5 | 30 nM
13 | COc1ccccc1N1CCN(CCCNC(=O)C(O)(c2ccccc2)c2ccccc2)CC1 [Compound 14, α-hydroxy-N-[3-{4-(2-methoxyphenyl)-1-piperazinyl}-propyl]-α-phenyl-benzeneacetamide] | 7.8 | 27 nM
14 | Cc1ccc(C)c(N2CCN(CCCNC(=O)C(O)(c3ccccc3)c3ccccc3)CC2)c1 [Compound 7, N-[3-{4-(2. 5-dimethylphenyl)-1-piperazinyl}-propyl]-α-hydroxy-α-phenyl-benzeneacetamide] | 8.1 | 30 nM
15 | Cc1ccc(C)c(N2CCN(CCCNC(=O)C(C)(O)c3ccccc3)CC2)c1 (racemic) [Compound 22, (±)-N-[3-{4-(2,5-dimethylphenyl)-1-piperazinyl}-propyl]-α-hydroxy-α-methyl-benzeneacetamide] | 8.3 | 25 nM
16 | COC(C(=O)NCCCN1CCN(c2cc(C)ccc2C)CC1)(c1ccccc1)c1ccccc1 [Compound 11, N-[3-{4-(2,5-dimethylphenyl)-1-piperazinyl}-propyl]-α-methoxy-α-phenyl-benzeneacetamide] | 6.9 | 38 nM
17 | CCC(O)(C(=O)NCCCN1CCN(c2cc(C)ccc2C)CC1)c1ccccc1 (racemic) [Compound 27, (±)-N-[3-{4-(2,5-dimethylphenyl)-1-piperazinyl}-propyl]-2-hydroxy-2-phenyl-butyramide] | 7.6 | 31 nM
18 | CCOc1ccccc1N1CCN(CCCNC(=O)C(O)(c2ccccc2)c2ccccc2)CC1 [Compound 8, N-[3-{4-(2-ethoxyphenyl)-1-piperazinyl}-propyl]-α-hydroxy-α-phenyl-benzeneacetamide] | 8.2 | 16 nM
19 | Cc1ccc(C)c(N2CCN(CCCNC(=O)C(C(=O)NCc3ccccc3)c3ccccc3)CC2)c1 (racemic) [Compound 47, (±)-N-[3-{4-(2,5-dimethylphenyl)-1-piperazinyl}-propyl]-α-benzylaminocarbonyl-benzeneacetamide] | 7.07 | 14 nM
20 | Cc1ccc(C)c(N2CCN(CCCNC(=O)[C@](C)(O)c3ccccc3)CC2)c1 [Compound 46, R-(-)-N-[3-{4-(2,5-dimethylphenyl)-1-piperazinyl}-propyl]-α-hydroxy-α-methyl-benzeneacetamide] | 7.5 | 48 nM
21 | Cc1ccccc1N1CCN(CCCNC(=O)C(O)(c2ccccc2)c2ccccc2)CC1 [Compound 2, α-hydroxy-N-[3-{4-(2-methylphenyl)-1-piperazinyl}-propyl]-α-phenyl-benzeneacetamide] | 8 | 30 nM
22 | COc1ccccc1N1CCN(CCCNC(=O)C(O)(c2ccccc2Cl)c2ccccc2Cl)CC1 [Compound 17, 2-chloro-α-(2-chlorophenyl)-α-hydroxy-N-[3-{4-(2-methoxyphenyl)-1-piperazinyl}-propyl]-α-phenyl-benzeneacetamide] | 7.7 | 54 nM
